Measurements: US20230096028A1, “BICYCLIC HETEROCYCLYL COMPOUNDS AND USES THEREOF” (Revolution Medicines, Inc., priority 2019, published 2023)

Experiments:
[1] = target: T1, SOS1 catalytic domain (residues 564-1049) (Homo sapiens, UniProt Q07889); test: Potency Assay: binding affinity to SOS1 using Surface Plasmon Resonance (SPR); design: SOS1 catalytic domain (residues 564-1049) immobilized on a sensor chip; details: immobilized SOS1 catalytic domain (residues 564-1049), read-out: SOS1 SPR Equilibrium Kd
T1 sequence (Q07889 564-1049): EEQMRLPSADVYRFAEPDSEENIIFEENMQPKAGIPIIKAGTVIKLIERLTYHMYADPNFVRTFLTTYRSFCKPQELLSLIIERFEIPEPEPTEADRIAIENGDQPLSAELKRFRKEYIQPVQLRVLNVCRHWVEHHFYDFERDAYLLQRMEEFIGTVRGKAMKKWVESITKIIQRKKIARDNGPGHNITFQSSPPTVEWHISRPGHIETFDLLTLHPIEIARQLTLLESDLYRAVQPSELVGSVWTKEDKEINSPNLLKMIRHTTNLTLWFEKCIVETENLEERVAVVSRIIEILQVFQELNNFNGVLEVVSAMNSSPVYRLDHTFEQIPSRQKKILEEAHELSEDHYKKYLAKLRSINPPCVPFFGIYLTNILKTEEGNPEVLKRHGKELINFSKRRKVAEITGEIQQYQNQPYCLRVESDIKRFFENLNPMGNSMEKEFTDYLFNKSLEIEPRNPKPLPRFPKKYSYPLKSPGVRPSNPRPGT
Procedure: Data was reported as equilibrium dissociation constant (Kd) values.
Using a GE Biacore 8K SPR instrument, avi-tagged SOS1 catalytic domain protein was immobilized to a level of approximately 6000 response units (RU) on a streptavidin-coated SPR sensor chip in assay buffer containing 0.01 M HEPES, 0.15 M NaCl and 0.05% v/v Surfactant P20. […] For each test compound, a separate 0 μM sample was generated for use during subsequent double reference subtraction. Serially for each test compound, individual dilution samples were flowed over the immobilized SOS1 protein at a flow rate of 50 μL/minute to monitor the association with SOS1. Dissociation of bound test compound from the SOS1 protein was immediately monitored by flowing assay buffer over the sensor surface and monitoring the decrease in binding signal back to the baseline level seen in the absence of compound. This was repeated for all compound dilutions in each series. The binding level response for each test compound concentration was noted immediately prior to the end of the association phase, and a secondary plot generated showing binding response level versus test compound concentration generated for each compound dilution series.

[2] = target: T1, SOS1 catalytic domain (residues 564-1049); test: Mode of Action Assay: inhibition of SOS1 nucleotide exchange activity (SOS1 TR-FRET IC50 Assay)
Procedure: The purpose of this assay was to characterize the inhibitory activity of compounds on SOS1 nucleotide exchange of KRAS. Data was reported as IC50 values based on the TR-FRET signal.
Note—the following protocol describes a procedure for monitoring the inhibition of SOS1 nucleotide exchange activity of wild-type KRAS in response to a compound of the invention.
The SOS1/compound mixture was incubated at room temperature with constant mixing on an orbital shaker for 20 minutes to allow the reaction to reach equilibrium. […] This mixture was prepared immediately before addition to the SOS1/compound mixture to prevent intrinsic nucleotide exchange. Then 5 μL of the pre-incubated SOS1/compound mixture and 7.5 μL of the KRAS mixture were added sequentially in a 384-well low volume black round bottom plate and incubated at room temperature with constant shaking for 30 minutes. Time-resolved fluorescence was measured on a PerkinElmer Envision plate reader.
Three replicates were performed for each compound. Data were normalized by the following: (Positive control−Sample signal)/(Positive control−negative control)*100. The data were fit using a four-parameter logistic fit.

SMILES	Kd [1]	IC50 [2]
CC(=O)N1CC(C)(C(=O)N2Cc3nc(Cl)nc(N[C@H](C)c4cccc(C(F)F)c4F)c3C2)C1 [Example 346]	< 0.4 µM	< 1 µM
C[C@@H](Nc1nc(Cl)nc2c1CN(C(=O)c1cc3c(cn1)OCCO3)C2)c1cc(N)cc(C(F)(F)F)c1 [Example 175]	> 0.4 µM	> 1 µM
COC1(C(=O)N2Cc3nc(C(F)(F)CO)nc(N[C@H](C)c4cccc(C(F)F)c4F)c3C2)CCOCC1 [Example 487, (R)-(2-(1,1-difluoro-2-hydroxyethyl)-4-((1-(3-(difluoromethyl)-2-fluorophenyl)ethyl)amino)-5,7-dihydro-6H-pyrrolo[3,4-d]pyrimidin-6-yl)(4-methoxytetrahydro-2H-pyran-4-yl)methanone]	< 0.4 µM	< 1 µM
C[C@@H](Nc1nc(Cl)nc2c1CN(C(=O)c1cnc3cc[nH]c3c1)C2)c1cc(N)cc(C(F)(F)F)c1 [Example 90]	> 0.4 µM	> 1 µM
CNC(=O)N1Cc2nc(C)nc(N[C@H](C)c3cc(N)cc(C(F)(F)F)c3)c2C1 [Example 122, 4-{[(1R)-1-[3-amino-5-(trifluoromethyl)phenyl]ethyl]amino}-N,2-dimethyl-5H,6H,7H-pyrrolo[3,4-d]pyrimidine-6-carboxamide]	> 0.4 µM	> 1 µM
C[C@@H](Nc1nc(Cl)nc2c1CN(S(=O)(=O)N1CCOCC1)C2)c1cccc(C(F)(F)CO)c1 [Example 178]	< 0.4 µM	< 1 µM
C[C@@H]1CN(C(=O)N2Cc3nc(Cl)nc(N[C@H](C)c4cc(N)cc(C(F)(F)F)c4)c3C2)C[C@H](C)O1 [Example 163]	< 0.4 µM	< 1 µM
Cc1nc2c(c(N[C@H](C)c3cc(N)cc(C(F)(F)F)c3)n1)CN(c1ccc(Br)cn1)C2 [Example 44, N-[(1R)-1-[3-amino-5-(trifluoromethyl)phenyl]ethyl]-6-(5-bromo-2-pyridyl)-2-methyl-5,7-dihydropyrrolo[3,4-d]pyrimidin-4-amine]	> 0.4 µM	> 1 µM
C[C@@H](Nc1nc(Cl)nc2c1CN(S(=O)(=O)N1CCCC1)CC2)c1cc(N)cc(C(F)(F)F)c1 [Example 182]	< 0.4 µM	< 1 µM
C[C@@H](Nc1nc(Cl)nc2c1CN(C(=O)N1CCN(C)c3ncccc31)C2)c1cccc(C(F)F)c1F [Example 426]	> 0.4 µM	< 1 µM
C[C@@H](Nc1nc(Cl)nc2c1CN(C(=O)N1CCC3(CC1)COC3)C2)c1cc(N)cc(C(F)(F)F)c1 [Example 159]	< 0.4 µM	< 1 µM
C[C@@H](Nc1nc(Cl)nc2c1CN(C(=O)N1CCN(C)c3ncncc31)C2)c1cccc(C(F)F)c1F [Example 428]	< 0.4 µM	< 1 µM
C[C@@H](Nc1nc(Cl)nc2c1CN(C(=O)c1ncc[nH]1)C2)c1cc(N)cc(C(F)(F)F)c1 [Example 95]	> 0.4 µM	> 1 µM
COC[C@H]1CCCN1C(=O)N1Cc2nc(Cl)nc(N[C@H](C)c3cc(N)cc(C(F)(F)F)c3)c2C1 [Example 154]	< 0.4 µM	< 1 µM
C[C@@H](Nc1nc(C(F)(F)F)nc2c1CN(C(=O)N1CCOCC1)C2)c1cc(N)cc(C(F)(F)F)c1 [Example 127, N-[(1R)-1-[3-amino-5-(trifluoromethyl)phenyl]ethyl]-6-(morpholine-4-carbonyl)-2-(trifluoromethyl)-5H,6H,7H-pyrrolo[3,4-d]pyrimidin-4-amine]	< 0.4 µM	> 1 µM
C[C@@H](Nc1nc(Cl)nc2c1CN(C(=O)c1ccc3c(n1)OCCO3)C2)c1cc(N)cc(C(F)(F)F)c1 [Example 80]	> 0.4 µM	> 1 µM
C[C@@H](Nc1nc(Cl)nc2c1CN(C(=O)c1csc(N3CCOCC3)n1)C2)c1cc(N)cc(C(F)(F)F)c1 [Example 85]	> 0.4 µM	> 1 µM
C[C@@H](Nc1nc(Cl)nc2c1CN(C(=O)[C@H]1CC[C@@H](O)CC1)C2)c1cc(N)cc(C(F)(F)F)c1 [Example 99]	> 0.4 µM	< 1 µM
C[C@@H](Nc1nc(Cl)nc2c1CN(C(=O)N1CCNC(=O)C1)C2)c1cc(N)cc(C(F)(F)F)c1 [Example 367]	< 0.4 µM	< 1 µM
